Patent US4966900A, “Cephalosporin β-lactam compound and medicinal composition” (priority 1986, dated 1990)
Counter-ions that a name gives are not always drawn.

What was measured:
E. colacae GN7471 = experiment: MIC; settings: Table 5
P. maltophilia OF247 = experiment: MIC; settings: Stenotrophomonas maltophilia, Table 5
K. pneumoniae 4at521 = experiment: MIC; settings: Klebsiella pneumoniae, 4AT521
C. freundii 1U692 = experiment: MIC; settings: Citrobacter freundii, 1U692
E. coli ML4707 = experiment: MIC; settings: Escherichia coli, ML4707, E. coli ML4707; Table 5
E. coli GN5482 = experiment: MIC; settings: Escherichia coli, GN5482, E. coli GN5482; Table 5
C. freundii 1R524 = experiment: MIC; settings: Citrobacter freundii, 1R524
E. cloacae 5D63-2 = experiment: MIC; settings: Enterobacter cloacae, 5D632
in vivo = experiment: in vivo; design: species or system Macaco; settings: monkey, 20 mg/kg
Method: Each of 20 mg/kg of the compounds obtained in Example 2, Example 25 and Example 28 was administered parenterally to Macaco and the half-time in blood was measured.
The concentrations of the compounds were measured according to HPLC method. Novapack C18 or Microbondapack C18 (trade name, produced by Waters Co.) was used as a column. Further, cefpiramide was used as a control drug.

C. freundii 1R526 = experiment: MIC; settings: Citrobacter freundii, 1R526
C. freundii 1U589 = experiment: MIC; settings: Citrobacter freundii, 1U589
S. aureus Smith = experiment: MIC; settings: Staphylococcus aureus, Table 5
E. cloacae 1V25 = experiment: MIC; settings: Enterobacter cloacae
P. aeruginosa 5D58-1 = experiment: MIC; settings: Pseudomonas aeruginosa, 5D581, P. aeruginosa 5D58-1; Table 5
C. freundii 1R523 = experiment: MIC; settings: Citrobacter freundii, 1R523
C. freundii 1R527 = experiment: MIC; settings: Citrobacter freundii, 1R527
C. freundii GN7391 = experiment: MIC; settings: Citrobacter freundii, GN7391, C. freundii GN7391
S. aureus IAA498 = experiment: MIC; assay type: cell-based; settings: Staphylococcus aureus, Table 5
Method: (§1) The minimum inhibition concentrations (MIC) of the compounds obtained in the respective examples described above were measured according to the standard method of Japanese Chemotherapy Association.

E. cloacae 1Y247 = experiment: MIC; assay type: cell-based; settings: Enterobacter cloacae, Table 6, read-out: MIC
Method: as §1

E. cloacae 5D52-2 = experiment: MIC; settings: Enterobacter cloacae, 5D522
P. cepacia OF189 = experiment: MIC; settings: Burkholderia cepacia, OF189, P. cepacia OF189; Table 5
C. freundii 5D60-1 = experiment: MIC; settings: Citrobacter freundii, 5D601
P. aeruginosa GN10362 = experiment: MIC; settings: Pseudomonas aeruginosa, GN10362
P. aeruginosa 4au542 = experiment: MIC; settings: Pseudomonas aeruginosa, 4AU542, P. aeruginosa 4au542; Table 5
E. cloacae 908RN = experiment: MIC; settings: Enterobacter cloacae
S. marcescens GN10857 = experiment: MIC; settings: Serratia marcescens, GN10857, S. marcescens GN10857; Table 5
P. vulgaris GN7919 = experiment: MIC; settings: Proteus vulgaris, GN7919

CC(C)(ON=C(C(=O)NC1C(=O)N2C(C(=O)O)=C(CSc3c4c(nc5c(C(=O)O)cnn35)CCC4)CSC12)c1csc(N)n1)C(=O)NNC(=O)c1ccc(O)c(O)c1 (centres unmarked) [Example 28, 7-{2-[2-Amino-1,3-thiazol-4-yl]-2-[1-(3-(3,4-dihydroxybenzoyl)carbazoyl)-1-methylethoxyimino]acetamide}-3-[(3-carboxy-6,7-dihydro-5H-cyclopenta[f]pyrazolo[1,5-a]pyrimidin-8-yl)thiomethyl]-3-cephem-4-carboxylic acid.hydrochloride]
MIC (E. colacae GN7471): 0.78 µg/mL
MIC (P. maltophilia OF247): 0.39 µg/mL
MIC (K. pneumoniae 4at521): < 0.006 µg/mL
MIC (C. freundii 1U692): 0.39 µg/mL
MIC (E. coli ML4707): 0.012 µg/mL
MIC (E. coli GN5482): < 0.006 µg/mL
MIC (C. freundii 1R524): 0.1 µg/mL
MIC (E. cloacae 5D63-2): 0.2 µg/mL
half-life (in vivo): 4.7 h
MIC (C. freundii 1R526): 0.1 µg/mL
MIC (C. freundii 1U589): 0.39 µg/mL
MIC (S. aureus Smith): 12.5 µg/mL
MIC (E. cloacae 1V25): 0.2 µg/mL
MIC (P. aeruginosa 5D58-1): 0.1 µg/mL
MIC (C. freundii 1R523): 0.2 µg/mL
MIC (C. freundii 1R527): 0.1 µg/mL
MIC (C. freundii GN7391; Table 5): 0.78 µg/mL
MIC (C. freundii GN7391; Table 6): 1.56 µg/mL
MIC (S. aureus IAA498): 25 µg/mL
MIC (E. cloacae 1Y247): 0.78 µg/mL
MIC (E. cloacae 5D52-2): 0.1 µg/mL
MIC (P. cepacia OF189): 0.012 µg/mL
MIC (C. freundii 5D60-1): 12.5 µg/mL
MIC (P. aeruginosa GN10362): 0.05 µg/mL
MIC (P. aeruginosa 4au542): 0.39 µg/mL
MIC (E. cloacae 908RN; E. cloacae 908RN, Table 6): 1.56 µg/mL
MIC (E. cloacae 908RN; E. colacae 908RN, Table 5): 0.78 µg/mL
MIC (S. marcescens GN10857): 0.2 µg/mL
MIC (P. vulgaris GN7919): 0.78 µg/mL
